{"source": "paper PMC10374108", "about": "“Structural and biochemical characterization of the key components of an auxin degradation operon from the rhizosphere bacterium Variovorax” (PLOS Biology, 2023)", "key": {"MarR": {"molecular_target": "MarR", "set-up": "method as in Conway et al. 2022", "conditions": "MarR domains, high affinity IAA binding; ref Conway et al. 2022; cited from earlier work"}, "Iad proteins": {"test_system": "Iad proteins", "assay": "Thermal shift assay (TSA), other Iad proteins with IAA", "format": "binding, Variovorax paradoxus CL14", "conditions": "for ΔTm: replicates", "method": "(§1) Ligands concentrations were tested at 2- to […] excess (10 to 1,000 μM) relative to the proteins (5 μM). The fluorescence dye SYPRO Orange at a final of 200-fold dilution was used to monitor the unfolding of proteins. The protein and ligand were incubated for 10 min at room temperature before the addition of SYPRO Orange dye. The QuantStudio 1 Plus real-time PCR system (Thermo Fisher) was used to control the temperature increasing from […] to […] with an increment of […] and to monitor the fluorescence (excitation: 520 ± 10 nm and emission: 558 ± 10 nm). Each tested group was run in triplicate and repeated. Data was imported to the Protein Thermal Shift software for analysis and plotting."}, "IadK2": {"test_system": "IadK2", "assay": "Thermal shift assay (TSA), IadK2 with IAA and analogs", "format": "binding, Variovorax paradoxus CL14", "method": "as §1"}, "IadF": {"molecular_target": "IadF (Variovorax paradoxus, UniProt A0A0H2MF82)", "sequence (A0A0H2MF82 entry or part of it)": "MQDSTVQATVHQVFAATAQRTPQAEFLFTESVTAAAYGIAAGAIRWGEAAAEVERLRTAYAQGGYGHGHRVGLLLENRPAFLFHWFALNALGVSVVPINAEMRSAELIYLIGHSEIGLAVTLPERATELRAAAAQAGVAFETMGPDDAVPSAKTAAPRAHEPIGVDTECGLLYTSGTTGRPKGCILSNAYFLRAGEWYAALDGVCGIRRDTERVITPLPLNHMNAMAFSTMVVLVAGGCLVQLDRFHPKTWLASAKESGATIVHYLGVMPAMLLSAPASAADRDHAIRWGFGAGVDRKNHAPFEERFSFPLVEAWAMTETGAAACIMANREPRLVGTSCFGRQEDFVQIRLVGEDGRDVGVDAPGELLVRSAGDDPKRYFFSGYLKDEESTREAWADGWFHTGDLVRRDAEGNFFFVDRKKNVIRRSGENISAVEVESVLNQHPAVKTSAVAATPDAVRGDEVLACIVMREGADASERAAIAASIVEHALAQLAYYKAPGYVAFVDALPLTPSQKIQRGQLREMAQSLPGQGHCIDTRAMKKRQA", "assay": "ITC, IAA binding to IadF", "set-up": "species or system Variovorax paradoxus CL14", "method": "(§2) ITC experiments were performed using a MicroCal PEAQ-ITC system (Malvern). All the experiments were performed at […] in a buffer containing 25 mM Tris-HCl (pH 7.5) and 150 mM NaCl (unless otherwise stated). […] Data was analyzed using the MicroCal PEAQ-ITC analysis software. All the measurements were repeated at least 2 times."}, "IadK3 point mutants": {"test_system": "IadK3 point mutants", "assay": "IAA binding to IadK3 point mutants (response to reviewers)", "set-up": "species or system Variovorax paradoxus CL14", "conditions": "pocket residues replaced by those of IadK2", "description": "We have performed point mutations for substitute residues in the potential ligand binding pocket of AdgA (now named as IadK3) with corresponding amino acids of AdgB (now named as IadK2). […] One potential explanation could be that residues beyond the putative ligand binding pocket may regulate the conformation of IadK3 and ligand binding specificity. Further studies would be required to further examined the ligand binding specificity of IadK3."}, "IadC [1]": {"molecular_target": "T1, IadC (Variovorax paradoxus, UniProt C5CSP5)", "T1 sequence (C5CSP5 1-330)": "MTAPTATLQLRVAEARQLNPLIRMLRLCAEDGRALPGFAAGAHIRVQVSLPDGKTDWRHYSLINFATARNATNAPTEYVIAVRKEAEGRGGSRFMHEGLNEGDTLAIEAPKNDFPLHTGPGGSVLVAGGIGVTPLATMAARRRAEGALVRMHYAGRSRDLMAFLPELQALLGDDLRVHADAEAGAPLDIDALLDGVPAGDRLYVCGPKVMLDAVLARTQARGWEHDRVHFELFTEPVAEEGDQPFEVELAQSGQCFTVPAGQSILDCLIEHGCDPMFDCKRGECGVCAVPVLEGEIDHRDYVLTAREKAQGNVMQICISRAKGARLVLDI", "assay": "In vitro IAA transformation assay, IadC alone", "format": "biochemical, Variovorax paradoxus CL14", "conditions": "result in words", "method": "In vitro assay was performed to test the capability of IadC/D/E enzymes encoded by the iad operon in transforming IAA and analogs. The reaction mixture was composed of 100 mM Tris-HCl (pH7.5), 250 μM reduced NADH, 10 μM ammonium iron (II) sulfate, and 3 μM of each enzyme component. […] The mixture was vortexed periodically to introduce oxygen for the reaction and was boiled to stop the reaction. After pelleting the precipitants, the supernatant was collected and mixed with 2 volumes of Salkowski reagent made of 0.5 M ferric chloride and 35% perchloric acid for the quantification of residual substrate by measuring the adsorption at 530 nm."}, "IadK2 mutants [2]": {"molecular_target": "IadK2 mutants (Variovorax paradoxus, UniProt T1X8R6, R199A)", "sequence (T1X8R6 entry or part of it R199A)": "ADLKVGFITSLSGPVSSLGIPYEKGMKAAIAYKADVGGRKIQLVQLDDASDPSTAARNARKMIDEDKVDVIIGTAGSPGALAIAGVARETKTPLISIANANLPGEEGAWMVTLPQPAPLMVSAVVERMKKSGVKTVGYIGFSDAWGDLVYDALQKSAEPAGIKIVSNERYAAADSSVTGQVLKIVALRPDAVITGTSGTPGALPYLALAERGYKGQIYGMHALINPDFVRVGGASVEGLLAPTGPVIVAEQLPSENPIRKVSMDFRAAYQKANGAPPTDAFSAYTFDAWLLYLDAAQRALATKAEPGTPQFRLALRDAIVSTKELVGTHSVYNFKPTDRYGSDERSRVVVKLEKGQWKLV", "assay": "ITC, IAA binding to IadK2 mutants", "set-up": "species or system Variovorax paradoxus CL14", "conditions": "Kd", "method": "as §2"}, "IadK2 mutants [3]": {"molecular_target": "IadK2 mutants (Variovorax paradoxus, UniProt T1X8R6, Y311A)", "sequence (T1X8R6 entry or part of it Y311A)": "as the sequence (T1X8R6 entry or part of it R199A) above, with A172R, Y284A counted along it", "assay": "ITC, IAA binding to IadK2 mutants", "set-up": "species or system Variovorax paradoxus CL14", "conditions": "Kd", "method": "as §2"}, "IadK2 mutants [4]": {"molecular_target": "IadK2 mutants (Variovorax paradoxus, UniProt T1X8R6, S104V/W172L)", "sequence (T1X8R6 entry or part of it S104V/W172L)": "as the sequence (T1X8R6 entry or part of it R199A) above, with S77V, W145L, A172R counted along it", "assay": "ITC, IAA binding to IadK2 mutants", "set-up": "species or system Variovorax paradoxus CL14", "method": "as §2"}, "IadK2 mutants [5]": {"molecular_target": "IadK2 mutants", "assay": "ITC, IAA binding to IadK2 mutants", "set-up": "species or system Variovorax paradoxus CL14", "conditions": "IadK2 mutant W172L, replicates", "method": "as §2"}, "IadK2 mutants [6]": {"molecular_target": "IadK2 mutants (Variovorax paradoxus, UniProt T1X8R6, S104V)", "sequence (T1X8R6 entry or part of it S104V)": "as the sequence (T1X8R6 entry or part of it R199A) above, with S77V, A172R counted along it", "assay": "ITC, IAA binding to IadK2 mutants", "set-up": "species or system Variovorax paradoxus CL14", "conditions": "Kd", "method": "as §2"}, "IadK2 mutants [7]": {"molecular_target": "IadK2 mutants (Variovorax paradoxus, UniProt T1X8R6, W172A)", "sequence (T1X8R6 entry or part of it W172A)": "as the sequence (T1X8R6 entry or part of it R199A) above, with W145A, A172R counted along it", "assay": "ITC, IAA binding to IadK2 mutants", "set-up": "species or system Variovorax paradoxus CL14", "conditions": "IadK2 mutant W172A, replicates", "method": "as §2"}, "IadC [8]": {"molecular_target": "T1, IadC", "assay": "ITC, IAA binding to IadC", "set-up": "species or system Variovorax paradoxus CL14", "method": "as §2"}, "IadI": {"molecular_target": "IadI (Variovorax paradoxus, UniProt A0A0H2M433)", "sequence (A0A0H2M433 entry or part of it)": "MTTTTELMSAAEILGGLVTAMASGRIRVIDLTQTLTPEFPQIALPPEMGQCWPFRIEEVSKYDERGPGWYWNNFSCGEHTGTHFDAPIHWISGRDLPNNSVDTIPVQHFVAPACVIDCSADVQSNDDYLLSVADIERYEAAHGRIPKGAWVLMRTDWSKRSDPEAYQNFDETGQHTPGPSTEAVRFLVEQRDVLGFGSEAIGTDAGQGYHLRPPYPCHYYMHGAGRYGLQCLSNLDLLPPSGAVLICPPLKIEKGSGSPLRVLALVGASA", "assay": "ITC, IAA binding to IadI", "set-up": "species or system Variovorax paradoxus CL14", "method": "as §2"}, "IadG": {"test_system": "IadG", "assay": "ITC, IAA binding to IadG", "set-up": "species or system Variovorax paradoxus CL14", "method": "as §2"}, "IadK3": {"molecular_target": "IadK3 (Variovorax paradoxus, UniProt A0A0H2LZ84)", "sequence (A0A0H2LZ84 entry or part of it)": "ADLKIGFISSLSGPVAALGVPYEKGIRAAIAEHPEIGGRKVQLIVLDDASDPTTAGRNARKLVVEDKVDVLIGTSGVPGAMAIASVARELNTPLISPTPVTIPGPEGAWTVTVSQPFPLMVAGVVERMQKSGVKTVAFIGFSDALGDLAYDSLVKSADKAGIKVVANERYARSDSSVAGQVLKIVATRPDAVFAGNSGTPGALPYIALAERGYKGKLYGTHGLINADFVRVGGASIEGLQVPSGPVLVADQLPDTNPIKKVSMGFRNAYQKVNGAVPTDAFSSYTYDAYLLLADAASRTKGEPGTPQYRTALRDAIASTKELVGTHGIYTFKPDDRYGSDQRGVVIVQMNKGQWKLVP", "assay": "ITC, auxins binding to IadK3", "set-up": "species or system Variovorax paradoxus CL14", "method": "as §2"}, "IadH": {"molecular_target": "IadH (Variovorax paradoxus, UniProt A0A0H2LZB5)", "sequence (A0A0H2LZB5 entry or part of it)": "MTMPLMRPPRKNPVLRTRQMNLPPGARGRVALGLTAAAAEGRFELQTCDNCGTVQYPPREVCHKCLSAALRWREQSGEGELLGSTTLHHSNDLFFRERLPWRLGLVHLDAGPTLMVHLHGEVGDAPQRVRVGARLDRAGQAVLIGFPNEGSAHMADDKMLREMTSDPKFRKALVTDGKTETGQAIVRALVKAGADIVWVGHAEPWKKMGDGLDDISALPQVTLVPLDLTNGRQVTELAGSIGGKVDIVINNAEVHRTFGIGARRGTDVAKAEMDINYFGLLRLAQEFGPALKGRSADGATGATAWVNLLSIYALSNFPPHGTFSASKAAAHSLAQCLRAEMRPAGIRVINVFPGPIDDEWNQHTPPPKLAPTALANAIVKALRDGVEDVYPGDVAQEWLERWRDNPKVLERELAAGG", "assay": "ITC, IAA binding to IadH", "set-up": "species or system Variovorax paradoxus CL14", "method": "as §2"}}, "note": "Where “and” joins values, the source holds several entries; their conditions need not be identical. Equal entries are not always repeated. Entries after “also recorded” stand apart in the source; their conditions may differ.", "data": [{"smiles": "O=C(O)Cc1c[nH]c2ccccc12", "note": "[IAA, indole-3-acetic acid]", "values": [{"measurement": "Kd", "setting": "MarR", "value": "~0.3", "unit": "µM"}, {"measurement": "effect on melting temperature (TSA)", "setting": "Iad proteins; Iad proteins other than IadK2, result in words", "value": "no profound effects"}, {"measurement": "ΔTm", "setting": "Iad proteins; IadC with IAA", "value": "-0.4983 °C and 0.9966 °C and 0 °C"}, {"measurement": "ΔTm", "setting": "Iad proteins; IadF with IAA", "value": "0.4983 °C and -0.9966 °C and 0 °C"}, {"measurement": "ΔTm", "setting": "Iad proteins; IadG with IAA", "value": "1.495 °C (2×) and 1.993 °C"}, {"measurement": "ΔTm", "setting": "Iad proteins; IadH with IAA", "value": "0.9966 °C and 0 °C and -0.4983 °C"}, {"measurement": "ΔTm", "setting": "Iad proteins; IadI with IAA", "value": "0.4983 °C and -0.4983 °C and -1.993 °C"}, {"measurement": "ΔTm", "setting": "Iad proteins; IadJ with IAA", "value": "0 °C and 0.4983 °C and 1.495 °C"}, {"measurement": "Tm change with IAA (TSA)", "setting": "IadK2; IadK2 WT, replicates, Fig 2E", "value": 5.98}, {"measurement": "ΔTm", "setting": "IadK2; IadK2 with IAA, replicates", "value": 5.98, "unit": "°C"}, {"measurement": "stabilization of IadK2 (melting temperature, TSA)", "setting": "IadK2; result in words", "value": "substantially increased the melting temperature; also recorded: most significant stabilization effect"}, {"measurement": "IAA binding (ITC)", "setting": "IadF", "value": "no binding detected"}, {"measurement": "Kd", "setting": "IadF; ITC, replicates", "value": "> 100", "unit": "µM"}, {"measurement": "binding of IAA to IadK3 point mutants", "setting": "IadK3 point mutants", "value": "none of the mutations could make IadK3 bind with IAA"}, {"measurement": "transformation by IadC alone", "setting": "IadC [1]", "value": "neither IadD/E nor IadC alone could catalyze the transformation"}, {"measurement": "Kd", "setting": "IadK2 mutants [2]; IadK2 R199A, IAA, mean ± SD", "value": "11.2 ± 1.8", "unit": "µM"}, {"measurement": "Kd", "setting": "IadK2 mutants [2]; IadK2 mutant R199A, replicates", "value": "9.5 µM and 10.4 µM"}, {"measurement": "Kd", "setting": "IadK2 mutants [3]; IadK2 Y311A, IAA, mean ± SD", "value": "21 ± 3", "unit": "µM"}, {"measurement": "Kd", "setting": "IadK2 mutants [3]; IadK2 mutant Y311A, replicates", "value": "17 µM and 24 µM and 22 µM"}, {"measurement": "Kd", "setting": "IadK2 mutants [4]; IadK2 mutant W172L/S104V, replicates", "value": "> 100", "unit": "µM"}, {"measurement": "Kd", "setting": "IadK2 mutants [4]; Kd, IadK2 W172L/S104V, IAA", "value": "> 100", "unit": "µM"}, {"measurement": "Kd", "setting": "IadK2 mutants [4]; Kd, IadK2 mutant W172L/S104V, replicates", "value": "> 100", "unit": "µM"}, {"measurement": "Kd", "setting": "IadK2 mutants [5]", "value": "weak binding"}, {"measurement": "Kd", "setting": "IadK2 mutants [6]; IadK2 S104V, IAA, mean ± SD", "value": "1.1 ± 0.3", "unit": "µM"}, {"measurement": "Kd", "setting": "IadK2 mutants [6]; IadK2 mutant S104V, replicates", "value": "0.88 µM and 0.9 µM and 1.5 µM"}, {"measurement": "Kd", "setting": "IadK2 mutants [7]", "value": "> 100", "unit": "µM"}, {"measurement": "Kd", "setting": "IadK2 mutants [7]; Kd", "value": "> 100", "unit": "µM"}, {"measurement": "IAA binding (ITC)", "setting": "IadC [8]", "value": "no binding detected"}, {"measurement": "Kd", "setting": "IadC [8]; ITC, replicates", "value": "> 100", "unit": "µM"}, {"measurement": "IAA binding (ITC)", "setting": "IadI", "value": "no binding detected"}, {"measurement": "Kd", "setting": "IadI; ITC, replicates", "value": "> 100", "unit": "µM"}, {"measurement": "IAA binding (ITC)", "setting": "IadG", "value": "no binding detected"}, {"measurement": "Kd", "setting": "IadG; ITC, replicates", "value": "> 100", "unit": "µM"}, {"measurement": "Kd", "setting": "IadK3; IadK3, ITC, replicates, read-out: ITC binding", "value": "> 100", "unit": "µM"}, {"measurement": "binding to IadK3 (ITC)", "setting": "IadK3; result in words", "value": "no obvious binding"}, {"measurement": "IAA binding (ITC)", "setting": "IadH", "value": "no binding detected"}, {"measurement": "Kd", "setting": "IadH; ITC, replicates", "value": "> 100", "unit": "µM"}]}]}
